For twelve molecules, IC50 results are on record in US12338262B2 (Forward Therapeutics, Inc., priority 2022, dated 2025).

In this assay the target is TNF-α (Homo sapiens, UniProt P01375). As to the kind of experiment: TNF-α Induced HEK Blue Cellular Assay. The assay is classed as cell-based. The note with it: HEK Blue TNFα reporter cells, TNF-α 100 pg/ml, 24 hrs at 37° C., secreted alkaline phosphatase (QUANTI-Blue, 620 nm). In short, it runs like this: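 Read-out is SEAP via QUANTI-Blue absorbance at 620 nm after a 24 h, 37 °C incubation of reporter HEK Blue cells with 100 pg/ml TNF-α plus compound at final […]–0.5 nM. Percent inhibition normalised to DMSO ± stimulation; 4-parameter logistic fit gives IC50.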
Chain of TNF-α (P01375 77-233 limits assumed): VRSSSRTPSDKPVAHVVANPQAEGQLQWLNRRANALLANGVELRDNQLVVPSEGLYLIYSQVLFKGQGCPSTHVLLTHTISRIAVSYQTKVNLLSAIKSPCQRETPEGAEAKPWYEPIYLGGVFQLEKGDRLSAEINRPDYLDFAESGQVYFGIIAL
In general, IC50 refers to the concentration needed to halve the response being measured. A lower IC50 goes with greater potency. Consider `Cc1nc2cc(F)c(-c3ccc(CP(C)(C)=O)nc3)nc2c(N[C@H](C)c2cc(C#N)ccc2F)c1Cl` [Example 39, (R)-3-(1-((3-chloro-6-(6-((dimethylphosphoryl)methyl)pyridin-3-yl)-7-fluoro-2-methyl-1,5-naphthyridin-4-yl)amino)ethyl)-4-fluorobenzonitrile], for which the IC50 was not above 1000 nM.

The molecule `Cc1nc2cc(F)c(-c3cnc(P(C)(C)=O)nc3)nc2c(N[C@@H](c2cc(C#N)ccc2F)C(F)F)c1Cl` [Example 36, (S)-3-(1-((3-chloro-6-(2-(dimethylphosphoryl)pyrimidin-5-yl)-7-fluoro-2-methyl-1,5-naphthyridin-4-yl)amino)-2,2-difluoroethyl)-4-fluorobenzonitrile] registered an IC50 not above 1000 nM.

`Cc1nc2cc(F)c(-c3ccc(P(C)(C)=O)nc3)nc2c(N[C@H](C)c2ccccc2F)c1Cl` [Example 18, 3-chloro-6-[6-(dimethylphosphoryl)pyridin-3-yl]-7-fluoro-N-[(1R)-1-(2-fluorophenyl)ethyl]-2-methyl-1,5-naphthyridin-4-amine] gave a half-maximal inhibitory concentration (IC50) not above 100 nM. The value for `Cc1nc2cc(F)c(-c3ccc(P(C)(C)=O)nc3)nc2c(N[C@H](C)c2cccc(F)c2F)c1C#N` [Example 144, 4-{[(1R)-1-(2,3-difluorophenyl)ethyl]amino}-6-[6-(dimethylphosphoryl)pyridin-3-yl]-7-fluoro-2-methyl-1,5-naphthyridine-3-carbonitrile] was 10000 to 30000 nM; that for `Cc1nc2cc(F)c(-c3ccc(P(C)(C)=O)nc3)cc2c(N[C@H](C)c2cc(F)cc(F)c2)c1Cl` [Example 112, 3-chloro-N-[(1R)-1-(3,5-difluorophenyl)ethyl]-6-[6-(dimethylphosphoryl)pyridin-3-yl]-7-fluoro-2-methylquinolin-4-amine] was not above 1000 nM.

Turning to `Cc1nc2cc(F)c(-c3ccc(P(C)(C)=O)nc3)nc2c(N[C@H](C)c2ccccn2)c1Cl` [Example 83, 3-chloro-6-[6-(dimethylphosphoryl)pyridin-3-yl]-7-fluoro-2-methyl-N-[(1R)-1-(pyridin-2-yl)ethyl]-1,5-naphthyridin-4-amine], the IC50 is not above 1000 nM. The value for `Cc1nc2cc(F)c(-c3ccc(P(C)(C)=O)nc3)nc2c(N[C@@H](C)c2cc(F)ccc2F)c1Cl` [Example 51, 3-chloro-N-[(1S)-1-(2,5-difluorophenyl)ethyl]-6-[6-(dimethylphosphoryl)pyridin-3-yl]-7-fluoro-2-methyl-1,5-naphthyridin-4-amine] was not above 100 nM; that for `COc1cc([C@@H](C)Nc2c(Cl)c(C)nc3cc(F)c(-c4ccc(P(C)(C)=O)nc4)nc23)ccn1` [Example 81, 3-chloro-6-[6-(dimethylphosphoryl)pyridin-3-yl]-7-fluoro-N-[(1R)-1-(2-methoxypyridin-4-yl)ethyl]-2-methyl-1,5-naphthyridin-4-amine] was 10000 to 30000 nM; that for `Cc1nc2cc(F)c(-c3ccc(P(C)(C)=O)nc3)cc2c(N[C@H](C)c2cncnc2)c1Cl` (single isomer, unassigned) [Example 100] was 10000 to 30000 nM.

Take `CCP(=O)(CC)c1ncc(-c2nc3c(N[C@H](C)c4cc(C#N)ccc4F)c(Cl)c(C)nc3cc2F)cn1` [Example 28, 3-[(1R)-1-({3-chloro-6-[2-(diethylphosphoryl)pyrimidin-5-yl]-7-fluoro-2-methyl-1,5-naphthyridin-4-yl}amino)ethyl]-4-fluorobenzonitrile]: the IC50 is not above 100 nM. Molecule `Cc1nc2cc(F)c(-c3ccc(P(C)(C)=O)nc3)nc2c(N[C@H](C)c2cccc(Cl)c2F)c1Cl` [Example 78, 3-chloro-N-[(1R)-1-(3-chloro-2-fluorophenyl)ethyl]-6-[6-(dimethylphosphoryl)pyridin-3-yl]-7-fluoro-2-methyl-1,5-naphthyridin-4-amine] registered an IC50 not above 100 nM.

For `CC[C@@H](Nc1c(Cl)c(C)nc2cc(F)c(-c3ccc(P(C)(C)=O)nc3)nc12)c1ccccn1` [Example 84, 3-chloro-6-[6-(dimethylphosphoryl)pyridin-3-yl]-7-fluoro-2-methyl-N-[(1R)-1-(pyridin-2-yl)propyl]-1,5-naphthyridin-4-amine], the IC50 was not above 1000 nM.
